Source: PubChem BioAssay AID1259407 (Chemical Carcinogenesis Research Information System (CCRIS), 2018)
The source made the active and inactive calls. No rule for the calls is given here.

Tested on: CCRIS mutagenicity, Ames/micronucleus/aberration tests
Assay: CCRIS mutagenicity studies
[1] = Test System: AMES SALMONELLA TYPHIMURIUM, Strain/Indicator: TA100, Metabolic Activation: NONE, Method: STANDARD PLATE
[2] = Test System: AMES SALMONELLA TYPHIMURIUM, Strain/Indicator: TA1535, Metabolic Activation: NONE, Method: STANDARD PLATE

CN(C)c1ccc(C(=O)c2ccc(N(C)C)cc2)cc1
mutagenic call (Test System: AMES SALMONELLA TYPHIMURIUM, Strain/Indicator: TA98, Metabolic Activation: MOUSE, LIVER, S-9, AROCLOR 1254, Method: STANDARD PLATE): inactive; negative | mutagenic call (Test System: AMES SALMONELLA TYPHIMURIUM, Strain/Indicator: TA98, Metabolic Activation: MOUSE, LIVER, S-9, Method: STANDARD PLATE): inactive; negative | mutagenic call (Test System: AMES SALMONELLA TYPHIMURIUM, Strain/Indicator: TA98, Metabolic Activation: NONE, Method: STANDARD PLATE): inactive; negative | mutagenic call (Test System: AMES SALMONELLA TYPHIMURIUM, Strain/Indicator: TA98, Metabolic Activation: RAT, LIVER, S-9, Method: STANDARD PLATE): inactive; negative | mutagenic call (Test System: AMES SALMONELLA TYPHIMURIUM, Strain/Indicator: TA100, Metabolic Activation: HAMSTER, LIVER, S-9, AROCLOR 1254, Method: STANDARD PLATE): inactive; negative | mutagenic call (Test System: AMES SALMONELLA TYPHIMURIUM, Strain/Indicator: TA100, Metabolic Activation: HAMSTER, LIVER, S-9, Method: STANDARD PLATE): inactive; negative | mutagenic call (Test System: AMES SALMONELLA TYPHIMURIUM, Strain/Indicator: TA100, Metabolic Activation: MOUSE, LIVER, S-9, Method: STANDARD PLATE): inactive; negative | mutagenic call [1]: inactive; negative | mutagenic call (Test System: AMES SALMONELLA TYPHIMURIUM, Strain/Indicator: TA100, Metabolic Activation: RAT, LIVER, S-9, AROCLOR 1254, Method: STANDARD PLATE): inactive; negative | mutagenic call (Test System: AMES SALMONELLA TYPHIMURIUM, Strain/Indicator: TA100, Metabolic Activation: RAT, LIVER, S-9, Method: STANDARD PLATE): inactive; negative | mutagenic call (Test System: AMES SALMONELLA TYPHIMURIUM, Strain/Indicator: TA1535, Metabolic Activation: HAMSTER, LIVER, S-9, AROCLOR 1254, Method: STANDARD PLATE): inactive; negative | mutagenic call (Test System: AMES SALMONELLA TYPHIMURIUM, Strain/Indicator: TA1535, Metabolic Activation: HAMSTER, LIVER, S-9, Method: STANDARD PLATE): inactive; negative | mutagenic call (Test System: AMES SALMONELLA TYPHIMURIUM, Strain/Indicator: TA1535, Metabolic Activation: MOUSE, LIVER, S-9, AROCLOR 1254, Method: STANDARD PLATE): inactive; negative | mutagenic call (Test System: AMES SALMONELLA TYPHIMURIUM, Strain/Indicator: TA1535, Metabolic Activation: MOUSE, LIVER, S-9, Method: STANDARD PLATE): inactive; negative | mutagenic call [2]: inactive; negative | mutagenic call (Test System: AMES SALMONELLA TYPHIMURIUM, Strain/Indicator: TA1535, Metabolic Activation: RAT, LIVER, S-9, AROCLOR 1254, Method: STANDARD PLATE): inactive; negative | mutagenic call (Test System: AMES SALMONELLA TYPHIMURIUM, Strain/Indicator: TA1535, Metabolic Activation: RAT, LIVER, S-9, Method: STANDARD PLATE): inactive; negative | mutagenic call (Test System: AMES SALMONELLA TYPHIMURIUM, Strain/Indicator: TA1537, Metabolic Activation: HAMSTER, LIVER, S-9, AROCLOR 1254, Method: STANDARD PLATE): inactive; negative | mutagenic call (Test System: AMES SALMONELLA TYPHIMURIUM, Strain/Indicator: TA1537, Metabolic Activation: MOUSE, LIVER, S-9, AROCLOR 1254, Method: STANDARD PLATE): inactive; negative | mutagenic call (Test System: AMES SALMONELLA TYPHIMURIUM, Strain/Indicator: TA1537, Metabolic Activation: MOUSE, LIVER, S-9, Method: STANDARD PLATE): inactive; negative | mutagenic call (Test System: AMES SALMONELLA TYPHIMURIUM, Strain/Indicator: TA1537, Metabolic Activation: NONE, Method: STANDARD PLATE): inactive; negative | mutagenic call (Test System: AMES SALMONELLA TYPHIMURIUM, Strain/Indicator: TA1537, Metabolic Activation: RAT, LIVER, S-9, AROCLOR 1254, Method: STANDARD PLATE): inactive; negative | mutagenic call (Test System: AMES SALMONELLA TYPHIMURIUM, Strain/Indicator: TA1537, Metabolic Activation: RAT, LIVER, S-9, Method: STANDARD PLATE): inactive; negative | mutagenic call (Test System: AMES SALMONELLA TYPHIMURIUM, Strain/Indicator: TA1538, Metabolic Activation: MOUSE, LIVER, S-9, Method: STANDARD PLATE): inactive; negative | mutagenic call (Test System: AMES SALMONELLA TYPHIMURIUM, Strain/Indicator: TA1538, Metabolic Activation: NONE, Method: STANDARD PLATE): inactive; negative | mutagenic call (Test System: AMES SALMONELLA TYPHIMURIUM, Strain/Indicator: TA1538, Metabolic Activation: RAT, LIVER, S-9, Method: STANDARD PLATE): inactive; negative | mutagenic call (Test System: E. COLI, Strain/Indicator: WP2 UVRA, Metabolic Activation: HAMSTER, LIVER, S-9, AROCLOR 1254, Method: STANDARD PLATE): inactive; negative | mutagenic call (Test System: E. COLI, Strain/Indicator: WP2 UVRA, Metabolic Activation: HAMSTER, LIVER, S-9, Method: STANDARD PLATE): inactive; negative | mutagenic call (Test System: E. COLI, Strain/Indicator: WP2 UVRA, Metabolic Activation: MOUSE, LIVER, S-9, AROCLOR 1254, Method: STANDARD PLATE): inactive; negative | mutagenic call (Test System: E. COLI, Strain/Indicator: WP2 UVRA, Metabolic Activation: MOUSE, LIVER, S-9, Method: STANDARD PLATE): inactive; negative | mutagenic call (Test System: E. COLI, Strain/Indicator: WP2 UVRA, Metabolic Activation: NONE, Method: STANDARD PLATE): inactive; negative | mutagenic call (Test System: E. COLI, Strain/Indicator: WP2 UVRA, Metabolic Activation: RAT, LIVER, S-9, AROCLOR 1254, Method: STANDARD PLATE): inactive; negative | mutagenic call (Test System: E. COLI, Strain/Indicator: WP2 UVRA, Metabolic Activation: RAT, LIVER, S-9, Method: STANDARD PLATE): inactive; negative

CCOC(C)C(=O)C(O)O (stereo unspecified)
mutagenic call (Test System: AMES SALMONELLA TYPHIMURIUM, Strain/Indicator: TA102, Metabolic Activation: NONE, Method: STANDARD PLATE): active; positive | mutagenic call (Test System: AMES SALMONELLA TYPHIMURIUM, Strain/Indicator: TA104, Metabolic Activation: NONE, Method: PREINCUBATION): active; positive | mutagenic call (Test System: AMES SALMONELLA TYPHIMURIUM, Strain/Indicator: TA2638A, Metabolic Activation: NONE, Method: STANDARD PLATE): active; positive

Cc1ccc2c([N+](=O)[O-])cccc2c1
mutagenic call (Test System: AMES SALMONELLA TYPHIMURIUM, Strain/Indicator: TA98, Metabolic Activation: NONE, Method: PREINCUBATION): active; positive

O=[N+]([O-])NC1=NCCN1Cc1ccc(Cl)nc1
mutagenic call (End Point: In vitro micronucleus, Test System: Human lymphocytes, Metabolic Activation: None): inactive; negative | mutagenic call (End Point: In vitro micronucleus, Test System: Human peripheral blood lymphocytes, Metabolic Activation: None): inactive; negative | mutagenic call (End Point: In vitro micronucleus, Test System: Human peripheral blood lymphocytes, Metabolic Activation: Rat, Liver, S-9 (10%)): active; positive (at highest dose only) | mutagenic call (End Point: In vivo chromosomal aberrations, Test System: Bone marrow polychromatic erythrocytes, Species: Rat, Strain/Sex: Wistar, Route: Oral): active; positive (structural changes) | mutagenic call (End Point: In vivo micronucleus, Test System: Bone marrow polychromatic erythrocytes, Species: Rat, Strain/Sex: Wistar/Male, Route: Oral): active; positive (at high dose) | mutagenic call (End Point: In vivo micronucleus, Test System: Bone marrow polychromatic erythrocytes, Species: Rat, Strain/Sex: Wistar, Route: Oral): active; positive | mutagenic call (Test System: Ames Salmonella typhimurium, Strain/Indicator: TA98, Metabolic Activation: None, Method: Preincubation): active; positive | mutagenic call (Test System: Ames Salmonella typhimurium, Strain/Indicator: TA98, Metabolic Activation: Rat, Liver, S-9 (10%), Aroclor 1254, Method: Preincubation): active; positive | mutagenic call (Test System: Ames Salmonella typhimurium, Strain/Indicator: TA100, Metabolic Activation: None, Method: Preincubation): inactive; negative | mutagenic call (Test System: Ames Salmonella typhimurium, Strain/Indicator: TA100, Metabolic Activation: Rat, Liver, S-9 (10%), Aroclor 1254, Method: Preincubation): inactive; negative

CS(=O)(=O)O
mutagenic call [1]: inactive; negative | mutagenic call (Test System: AMES SALMONELLA TYPHIMURIUM, Strain/Indicator: TA100, Metabolic Activation: RAT, LIVER, S-9, AROCLOR 1254 (10%), Method: STANDARD PLATE): inactive; negative | mutagenic call [2]: inactive; negative | mutagenic call (Test System: AMES SALMONELLA TYPHIMURIUM, Strain/Indicator: TA1535, Metabolic Activation: RAT, LIVER, S-9, AROCLOR 1254 (10%), Method: STANDARD PLATE): inactive; negative
